Data reported in patent publication EP2100894A1, “Pyridopyrimidines used as Plk1 (polo-like kinase) inhibitors” (4SC AG, priority 2008, dated 2009).

Biological target: T1, PIk1 (Homo sapiens, UniProt P53350)
T1 construct: His tag (histidine tag) (N); made in house; host or cells: SF9 insect cells
Assay: PIk1 kinase activity inhibition assay (33P incorporation into alpha casein, flash plates)
Format: biochemical
Conditions: recombinant N-terminally histidine-tagged PIk1, alpha casein as substrate, 100 nM Li-ATP, 80 minutes at 30°C
Procedure: The inhibition of PIk1 kinase activity can be measured using recombinant PIk1 protein expressed as an N-terminally histidine-tagged protein in SF9 insect cells and alpha casein as substrate. The PIk1 assay is run in 96 well plates by incubating 50 to 100 ng per well recombinant PIk1, 500 ng per well alpha casein (Sigma, # C-6780) as substrate, 10 µl of compound of invention (test compounds were dissolved as 20 mM solutions in dimethylsulfoxide (DMSO) and subsequently diluted), and 100 nM Li-ATP (including ^33P-ATP) in 100 µl of reaction buffer ([…], pH 7.5; 3 mM MgCl2; 3 mM MnCl2; 3 µM Na-Orthovanadat; 1 mM DTT; 1 µg/ml PEG 8000) for 80 minutes at 30°C. The reactions are terminated by adding 100 µl stopping buffer (2% H3PO4 for 5 minutes) and are washed 3 times with washing solution (0,9% NaCl). Determining ^33P incorporated into the protein substrate alpha casein, the detection is based on the adhesion of the phosphorylated protein to the surface of scintillator-coated flash plates (Perkin Elmer, USA; # SMP-200). Phosphorylation of alpha casein is measured by counting the radioactivity bound to the plate for 60 sec. using a plate reader (Perkin Elmer, USA; Wallac Microbeta). By this method, the IC50 value of the PIk1 inhibition is determined as described above. […]

T1 sequence (P53350 whole entry): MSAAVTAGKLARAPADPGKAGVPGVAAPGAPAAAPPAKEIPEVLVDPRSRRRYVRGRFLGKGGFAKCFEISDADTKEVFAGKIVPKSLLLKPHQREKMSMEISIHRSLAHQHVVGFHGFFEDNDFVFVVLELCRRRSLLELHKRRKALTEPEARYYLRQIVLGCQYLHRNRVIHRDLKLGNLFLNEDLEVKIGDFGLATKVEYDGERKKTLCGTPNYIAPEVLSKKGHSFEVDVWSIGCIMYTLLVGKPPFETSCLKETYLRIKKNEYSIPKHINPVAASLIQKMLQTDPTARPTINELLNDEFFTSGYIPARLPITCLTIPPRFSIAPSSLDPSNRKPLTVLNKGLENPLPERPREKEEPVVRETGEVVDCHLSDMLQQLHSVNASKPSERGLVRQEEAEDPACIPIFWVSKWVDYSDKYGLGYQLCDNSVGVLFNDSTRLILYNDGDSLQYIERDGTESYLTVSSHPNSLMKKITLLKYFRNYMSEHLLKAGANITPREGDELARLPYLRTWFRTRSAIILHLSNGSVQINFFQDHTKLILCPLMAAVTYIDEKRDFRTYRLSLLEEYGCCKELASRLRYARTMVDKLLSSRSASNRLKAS

Compound	IC50
COc1cc(C(=O)NC2CCN(C)CC2)ccc1Nc1ncc2c(n1)c(-c1cc[nH]c1)c(OCC1CC1)c(=O)n2C [Example 76, 4-{[7-(cyclopropylmethoxy)-5-methyl-6-oxo-8-(1H-pyrrol-3-yl)-5,6-dihydro-pyrido[3,2-d]pyrimidin-2-yl]amino}-3-methoxy-N-(1-methylpiperidin-4-yl)benzamide]	< 10 nM
COc1cc(C(=O)NC2CCN(C)CC2)ccc1Nc1ncc2c(cc(OCC3CCCCC3)c(=O)n2C)n1 [Example 9, 4-{[7-(cyclohexylmethoxy)-5-methyl-6-oxo-5,6-dihydropyrido[3,2-d]pyrimidin-2-yl]amino}-3-methoxy-N-(1-methylpiperidin-4-yl)benzamide]	< 1000 nM
COc1cc(C(=O)NC2CCN(C)CC2)ccc1Nc1ncc2c(n1)c(-c1ccccc1)c(OCC1CC1)c(=O)n2C [Example 51, 4-{[7-(cyclopropylmethoxy)-5-methyl-6-oxo-8-phenyl-5,6-dihydro-pyrido[3,2-d]pyrimidin-2-yl]amino}-3-methoxy-N-(1-methylpiperidin-4-yl)benzamide]	< 10 nM
COc1cc(C(=O)NC2CCN(C)CC2)ccc1Nc1ncc2c(n1)c(-c1ccccc1F)c(OCC1CC1)c(=O)n2C [Example 59, 4-{[7-(cyclopropylmethoxy)-8-(2-fluorophenyl)-5-methyl-6-oxo-5,6-dihydropyrido[3,2-d]pyrimidin-2-yl]amino}-3-methoxy-N-(1-methylpiperidin-4-yl)benzamide]	< 10 nM
C/C=C/c1c(OCC2CC2)c(=O)n(C)c2cnc(Nc3ccc(C(=O)NC4CCN(C)CC4)cc3OC)nc12 [Example 27, 4-({7-(cyclopropylmethoxy)-5-methyl-6-oxo-8-[(1E)-prop-1-en-1-yl]-5,6-dihydropyrido[3,2-d]pyrimidin-2-yl}amino)-3-methoxy-N-(1-methylpiperidin-4-yl)benzamide]	< 100 nM
COc1cc(C(=O)NC2CCN(C)CC2)ccc1Nc1ncc2c(n1)c(-c1ccsc1)c(OCC1CC1)c(=O)n2C [Example 32, 4-{[7-(cyclopropylmethoxy)-5-methyl-6-oxo-8-(3-thienyl)-5,6-dihydro-pyrido[3,2-d]pyrimidin-2-yl]amino}-3-methoxy-N-(1-methylpiperidin-4-yl)benzamide]	< 100 nM
COc1cc(C(=O)NC2CCN(C)CC2)ccc1Nc1ncc2c(cc(OCC3CCCO3)c(=O)n2C)n1 (stereo not shown) [Example 13, 3-methoxy-4-{[5-methyl-6-oxo-7-(tetrahydrofuran-2-ylmethoxy)-5,6-dihydropyrido[3,2-d]pyrimidin-2-yl]amino}-N-(1-methylpiperidin-4-yl)benzamide]	< 1000 nM
C/C=C/c1c(OC(C)C2CC2)c(=O)n(C)c2cnc(Nc3ccc(C(=O)NC4CCN(C)CC4)cc3OC)nc12 (stereo not shown) [Example 45, 4-({7-(1-cyclopropylethoxy)-5-methyl-6-oxo-8-[(1E)-prop-1-en-1-yl]-5,6-dihydropyrido[3,2-d]pyrimidin-2-yl}amino)-3-methoxy-N-(1-methylpiperidin-4-yl)benzamide]	< 100 nM
COc1cc(C(=O)NC2CCN(C(C)C)CC2)ccc1Nc1ncc2c(n1)c(-c1ccsc1)c(OCC1CC1)c(=O)n2C [Example 49, 4-{[7-(cyclopropylmethoxy)-5-methyl-6-oxo-8-(3-thienyl)-5,6-dihydropyrido[3,2-d]pyrimidin-2-yl]amino}-N-(1-isopropylpiperidin-4-yl)-3-methoxybenzamide]	< 10 nM
CCOc1c(-c2nccs2)c2nc(Nc3ccc(C(=O)NC4CCN(C)CC4)cc3OC)ncc2n(C)c1=O [Example 50, 4-{[7-ethoxy-5-methyl-6-oxo-8-(1,3-thiazol-2-yl)-5,6-dihydropyrido[3,2-d]pyrimidin-2-yl]amino}-3-methoxy-N-(1-methylpiperidin-4-yl)benzamide]	< 100 nM
COc1cc(C(=O)NC2CCN(C)CC2)ccc1Nc1ncc2c(n1)c(-c1cccc(F)c1)c(OCC1CC1)c(=O)n2C [Example 54, 4-{[7-(cyclopropylmethoxy)-8-(3-fluorophenyl)-5-methyl-6-oxo-5,6-dihydropyrido[3,2-d]pyrimidin-2-yl]amino}-3-methoxy-N-(1-methylpiperidin-4-yl)benzamide]	< 10 nM
COc1cc(C(=O)NC2CCN(C)CC2)ccc1Nc1ncc2c(n1)c(C1CCCC1)c(OC)c(=O)n2C [Example 14, 4-[(8-cyclopentyl-7-methoxy-5-methyl-6-oxo-5,6-dihydropyrido[3,2-d]pyrimidin-2-yl)amino]-3-methoxy-N-(1-methylpiperidin-4-yl)benzamide]	< 100 nM
COc1cc(C(=O)NC2CCN(C)CC2)ccc1Nc1ncc2c(n1)c(-c1ccncc1)c(OCC1CC1)c(=O)n2C [Example 68, 4-{[7-(cyclopropylmethoxy)-5-methyl-6-oxo-8-pyridin-4-yl-5,6-dihydro-pyrido[3,2-d]pyrimidin-2-yl]amino}-3-methoxy-N-(1-methylpiperidin-4-yl)benzamide]	< 10 nM
COc1cc(C(=O)NC2CCN(C)CC2)ccc1Nc1ncc2c(n1)c(-c1cscc1C)c(OC)c(=O)n2C [Example 33, 3-methoxy-4-{[7-methoxy-5-methyl-8-(4-methyl-3-thienyl)-6-oxo-5,6-dihydropyrido[3,2-d]pyrimidin-2-yl]amino}-N-(1-methylpiperidin-4-yl)benzamide]	< 1000 nM
C/C=C/c1c(OC(C)CC)c(=O)n(C)c2cnc(Nc3ccc(C(=O)NC4CCN(C)CC4)cc3OC)nc12 (stereo not shown) [Example 40, 4-({7-sec-butoxy-5-methyl-6-oxo-8-[(1E)-prop-1-en-1-yl]-5,6-dihydro-pyrido[3,2-d]pyrimidin-2-yl}amino)-3-methoxy-N-(1-methylpiperidin-4-yl)benzamide]	< 100 nM
COc1cc(C(=O)NC2CCN(C)CC2)ccc1Nc1ncc2c(n1)c(C(C)C)c(OC)c(=O)n2C [Example 24, 4-[(8-isopropyl-7-methoxy-5-methyl-6-oxo-5,6-dihydropyrido[3,2-d]pyrimidin-2-yl)amino]-3-methoxy-N-(1-methylpiperidin-4-yl)benzamide]	< 1000 nM
CCOc1cc(C(=O)NC2CCN(C)CC2)ccc1Nc1ncc2c(n1)c(-c1ccsc1)c(OCC1CC1)c(=O)n2C [Example 75, 4-{[7-(cyclopropylmethoxy)-5-methyl-6-oxo-8-(3-thienyl)-5,6-dihydro-pyrido[3,2-d]pyrimidin-2-yl]amino}-3-ethoxy-N-(1-methylpiperidin-4-yl)benzamide]	< 10 nM
COc1cc(C(=O)NC2CCN(C)CC2)ccc1Nc1ncc2c(n1)c(C1=C(C)CCCC1)c(OC)c(=O)n2C [Example 17, 3-methoxy-4-{[7-methoxy-5-methyl-8-(2-methylcyclohex-1-en-1-yl)-6-oxo-5,6-dihydropyrido[3,2-d]pyrimidin-2-yl]amino}-N-(1-methylpiperidin-4-yl)benzamide]	< 1000 nM
COc1cc(C(=O)NC2CCN(C)CC2)ccc1Nc1ncc2c(n1)c(-c1cscn1)c(OCC1CC1)c(=O)n2C [Example 63, 4-{[7-(cyclopropylmethoxy)-5-methyl-6-oxo-8-(1,3-thiazol-4-yl)-5,6-dihydropyrido[3,2-d]pyrimidin-2-yl]amino}-3-methoxy-N-(1-methylpiperidin-4-yl)benzamide]	< 10 nM
C/C=C/c1c(OCC2CC2)c(=O)n(C)c2cnc(Nc3ccc(C(=O)NC4CCN(C)CC4)cc3CC)nc12 [Example 65, 4-({7-(cyclopropylmethoxy)-5-methyl-6-oxo-8-[(1E)-prop-1-en-1-yl]-5,6-dihydropyrido[3,2-d]pyrimidin-2-yl}amino)-3-ethyl-N-(1-methylpiperidin-4-yl)benzamide]	< 10 nM
COc1cc(C(=O)NC2CCN(C)CC2)ccc1Nc1ncc2c(n1)c(C1CC1)c(OC)c(=O)n2C [Example 19, 4-[(8-cyclopropyl-7-methoxy-5-methyl-6-oxo-5,6-dihydropyrido[3,2-d]pyrimidin-2-yl)amino]-3-methoxy-N-(1-methylpiperidin-4-yl)benzamide]	< 100 nM
COc1cc(C(=O)NC2CCN(C)CC2)ccc1Nc1ncc2c(n1)c(-c1csc(C)c1)c(OCC1CC1)c(=O)n2C [Example 60, 4-{[7-(cyclopropylmethoxy)-5-methyl-8-(5-methyl-3-thienyl)-6-oxo-5,6-dihydropyrido[3,2-d]pyrimidin-2-yl]amino}-3-methoxy-N-(1-methylpiperidin-4-yl)benzamide]	< 10 nM
COc1cc(C(=O)NC2CCN(C)CC2)ccc1Nc1ncc2c(cc(OC)c(=O)n2C)n1 [Example 21, 3-methoxy-4-[(7-methoxy-5-methyl-6-oxo-5,6-dihydropyrido[3,2-d]pyrimidin-2-yl)amino]-N-(1-methylpiperidin-4-yl)benzamide]	< 1000 nM
CCOc1c(-c2ccsc2)c2nc(Nc3ccc(C(=O)NC4CCN(C)CC4)cc3OC)ncc2n(C)c1=O [Example 30, 4-{[7-ethoxy-5-methyl-6-oxo-8-(3-thienyl)-5,6-dihydropyrido[3,2-d]pyri-midin-2-yl]amino}-3-methoxy-N-(1-methylpiperidin-4-yl)benzamide]	< 10 nM
C/C=C/c1c(OC)c(=O)n(C)c2cnc(Nc3ccc(C(=O)NCc4cncn4C)cc3OC)nc12 [Example 20, 3-methoxy-4-({7-methoxy-5-methyl-6-oxo-8-[(1E)-prop-1-en-1-yl]-5,6-dihydropyrido[3,2-d]pyrimidin-2-yl}amino)-N-[(1-methyl-1H-imidazol-5-yl)methyl]benzamide]	< 100 nM
